# Entries after “also recorded” stand apart in the source; their conditions may differ.
# Legend:
# [1] = cited from earlier work
# [2] = heat and accelerated stability study of solution in methanol; format: physicochemical
# Method: Then, the rate constant of degradation at each temperature was calculated, and the shelf life of the solution at each temperature was calculated.
# [3] = pH stability and pH-rate profile; format: physicochemical; details: methanolic citrate buffer, pH 3.5, 5 and 6.2
# Method: A citrate buffer at three pH values was prepared as described above (pH of 3.5, 5, and 6.2). […] The aim was to calculate the rate constant at each pH level and plot it against the pH values.
# pH-solubility profile = format: physicochemical; details: for solubility at 48 h: aqueous buffer
# Method: All buffers were at a concentration of 0.05 M. The experiment was performed in the same way as the previous experiment on solubility.
# [4] = parameters: method as in PMID 23639470; details: 20 to 300 mg every 12 h; cited from earlier work
# [5] = sink conditions for dissolution test at pH 6.8 and 4.5; format: physicochemical; details: 37 °C, 24 h, dose 150 mg, media M1-M16
# Method: The sink conditions are necessary to perform a successful dissolution test for oral solid dosage forms. […] Phosphate buffer (pH of 6.8) and acetate buffer (pH of 4.5) were prepared. Then, SLS, Tween 80, and ethanol were tried in different concentrations to achieve the target.
# [6] = solubility study in water and different solvents; format: physicochemical; details: thermodynamic from solid
# Method: Then, they were covered with aluminum foil to exclude the light effect. Then, all tubes were put in a water bath at 25 ± 1 °C and 50 rpm for 48 h to reach equilibrium. After that, the samples were filtered using a 0.22 µm filter, and 1 mL was injected into the HPLC. Any sample with a high reading was diluted with the mobile phase.
# [7] = short-term (24 h) stability of solution in methanol; format: physicochemical; details: room temperature
# [8] = cited from earlier work; remark: listed apart in the source
# [9] = known description, no reference given; cited from earlier work
# [10] = photostability in solution and solid state; format: physicochemical
# [11] = cited from earlier work; remark: listed apart in the source
# [12] = parameters: method as in PMID 21575866; details: compared with free plasma concentration; cited from earlier work
# [13] = parameters: method as in PMID 25153538; details: non-fasting conditions; cited from earlier work
# NCI-H2228 cell line = tested on: NCI-H2228 cell line; parameters: method as in PMID 25205428; details: oral administration, cited from earlier work
compound,measurement,setting,value
"CCc1cc2c(cc1N1CCC(N3CCOCC3)CC1)C(C)(C)c1[nH]c3cc(C#N)ccc3c1C2=O.Cl [ALBHCL, 9-ethyl-6,6-dimethyl-8-[4-(morpholin-4-yl)piperidin-1-yl]-11-oxo-6,11-dihydro-5H-benzo[b]carbazole-3-carbonitrile-hydrochloride]",adverse drug reaction: drug-induced liver injury,[1],1.3%
same,adverse drug reaction: interstitial lung disease,[1],1.3%
same,adverse drug reaction: photosensitivity reaction,[1],5.3%
same,adverse drug reaction: stomatitis,[1],3.3%
same,adverse drug reaction: weight gain,[1],9.9%
same,nephrotoxicity,[1],reported in rare cases
same,bradycardia,"[1]; increased exposure, ref Pruis et al. 17",linked to bradycardia
same,rate constant K1 (at 25 °C),[2]; extrapolated to 25 °C,0.00075 h⁻¹
same,half-life,"[2]; solution in methanol, 25 °C",38.5 days
same,shelf-life of solution,"[2]; solution in methanol, 25 °C, 0.105/K25",140 h
same,rate constant of degradation (first-order) K50 °C,"[2]; solution in methanol, 50 °C",0.01013 h⁻¹
same,rate constant of degradation (first-order) K55 °C,"[2]; solution in methanol, 55 °C",0.01382 h⁻¹
same,rate constant of degradation (first-order) K60 °C,"[2]; solution in methanol, 60 °C",0.02579 h⁻¹
same,effect of pH on stability,[3],increasing the pH would increase stability
same,solubility at 48 h,"pH-solubility profile; pH 3.5, citrate buffer 0.05 M",50 µg/mL
same,solubility at 48 h,"pH-solubility profile; pH 5, citrate buffer 0.05 M",25.8 µg/mL
same,stability at pH 1.2,"pH-solubility profile; pH 1.2, chloride buffer, chromatogram after 24 h",showed degradation; also recorded: instability
same,pH of maximum solubility,pH-solubility profile; pH 1.2 to 10,3.5
same,time of peak plasma levels after administration,[4],2.00 to 4.61 h
same,dissolution media that fulfilled sink conditions,[5],"phosphate buffer 6.8 + 2% SLS (M3), phosphate buffer 6.8 + 5% Tween 80 (M6), acetate buffer 4.5 + 2% SLS (M11), and acetate buffer 4.5 + 5% Tween 80 (M14)"
same,solubility at 48 h,"[6]; PEG 400, organic solvent or mixture, PEG400, 25 °C, read-out: solubility",260 ± 6 µg/mL
same,solubility at 48 h,"[6]; organic solvent or mixture, DMSO, 25 °C, read-out: solubility",4500 ± 6.1 µg/mL
same,solubility at 48 h,"[6]; organic solvent or mixture, THF, 25 °C, read-out: solubility",280.9 ± 2.4 µg/mL
same,solubility at 48 h,"[6]; organic solvent or mixture, acetonitrile, 25 °C, read-out: solubility",150.2 ± 1.1 µg/mL
same,solubility at 48 h,"[6]; organic solvent or mixture, chloroform, 25 °C, read-out: solubility",620.3 ± 0.58 µg/mL
same,solubility at 48 h,"[6]; organic solvent or mixture, ethanol, 25 °C, read-out: solubility",210 ± 4.5 µg/mL
same,solubility at 48 h,"[6]; organic solvent or mixture, methanol, 25 °C, read-out: solubility",1991 ± 7.2 µg/mL
same,solubility at 48 h,"[6]; propylene glycol, organic solvent or mixture, PG, 25 °C, read-out: solubility",211 ± 5.8 µg/mL
same,solubility at 48 h,"[6]; water, 25 °C, read-out: absolute solubility",10.3 ± 1.2 µg/mL
same,duration of stability of solutions,[7],24 h
same,route of most elimination,[8],feces
same,"solubility in water, descriptive",[9],practically insoluble
same,remained intact after exposure to light,"[10]; solid powder, 36 h light",82%
same,recovery from analysis of the powder,"[10]; solid powder, light, up to 36 h",99%
same,half-life at 50 µg/mL,"[10]; solution in methanol exposed to light, solution, light, room temperature, read-out: half-life of photodegradation (converted)",0.346 days
same,intact ALBHCL remaining after exposure to light,"[10]; solution in methanol, 36 h light",32%
same,rate constant of photodegradation (first-order) K,"[10]; solution, light",0.0829 h⁻¹
same,lipophilicity,[11],highly lipophilic
same,logP,[11]; no method or reference given,5.5
same,measured concentrations in the blood-cerebrospinal fluid (CSF) barrier,[12],approximately equal to the free concentration of ALBHCl in plasma
same,increase of AUC,[13],20%
same,increase of Cmax,[13],20%
same,tumor regression,NCI-H2228 cell line; NCI-H2228 cell line,notable regression
same,ED50 of tumor suppression,NCI-H2228 cell line; tumor-bearing mice,0.46 mg/kg
